Data on 21 molecules can be found in patent US9926297B2, “Bicyclic AZA compounds as muscarinic M1 receptor and/or M4 receptor agonists” (Heptares Therapeutics Limited, priority 2014, dated 2018).

Each structure is given as a SMILES string.

Assay [1] concerns the target T1, human muscarinic M1 receptor (Homo sapiens, UniProt P11229).
T1 sequence (P11229 1-460): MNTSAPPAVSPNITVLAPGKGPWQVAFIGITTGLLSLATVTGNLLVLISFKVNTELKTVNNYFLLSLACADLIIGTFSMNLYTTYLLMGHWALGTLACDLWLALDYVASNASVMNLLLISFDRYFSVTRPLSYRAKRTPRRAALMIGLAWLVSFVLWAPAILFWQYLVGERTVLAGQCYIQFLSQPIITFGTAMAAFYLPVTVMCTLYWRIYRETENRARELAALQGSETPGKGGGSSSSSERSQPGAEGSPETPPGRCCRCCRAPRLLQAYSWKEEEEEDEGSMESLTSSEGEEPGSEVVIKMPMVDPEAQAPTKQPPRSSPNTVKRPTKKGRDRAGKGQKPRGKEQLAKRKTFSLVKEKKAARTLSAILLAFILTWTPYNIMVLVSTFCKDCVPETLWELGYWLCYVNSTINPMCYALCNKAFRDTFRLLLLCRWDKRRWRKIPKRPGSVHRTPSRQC
Nature of the assay: Alphascreen Surefire phospho-ERK1/2 functional assay, M1. It is filed as cell-based. As to conditions: for EC50: CHO cells stably expressing human M1, phospho-ERK1/2, * = variable results, read-out: pEC50 M1 (converted); for Emax: CHO, read-out: % Emax cf. ACh, M1, CHO cells stably expressing human M1, relative to ACh.

The target in assay [2] is T2, human muscarinic M4 receptor (Homo sapiens, UniProt P08173).
T2 construct: expressed in transfected cells
T2 sequence (P08173 1-479): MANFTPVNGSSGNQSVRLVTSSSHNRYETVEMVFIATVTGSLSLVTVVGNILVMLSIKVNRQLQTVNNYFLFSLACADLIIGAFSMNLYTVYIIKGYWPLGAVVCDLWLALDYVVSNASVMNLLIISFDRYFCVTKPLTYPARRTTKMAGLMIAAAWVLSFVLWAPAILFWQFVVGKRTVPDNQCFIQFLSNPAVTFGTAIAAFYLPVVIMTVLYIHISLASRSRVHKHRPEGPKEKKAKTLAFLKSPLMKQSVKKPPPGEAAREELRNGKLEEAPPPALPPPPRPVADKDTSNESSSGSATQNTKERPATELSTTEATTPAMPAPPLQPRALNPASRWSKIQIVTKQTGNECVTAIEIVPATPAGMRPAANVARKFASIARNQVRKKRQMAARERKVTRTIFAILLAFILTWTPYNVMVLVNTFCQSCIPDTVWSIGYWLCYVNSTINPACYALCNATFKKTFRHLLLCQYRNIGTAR
The assay can be described thus: Alphascreen Surefire phospho-ERK1/2 functional assay, M4. It is filed as cell-based. As to conditions: for EC50: CHO cells stably expressing human M4, phospho-ERK1/2, * = variable results, read-out: pEC50 M4 (converted); for Emax: CHO, read-out: % Emax cf. ACh, M4, CHO cells stably expressing human M4, relative to ACh.

As to `COC(=O)N1CCC2(CC(N3CCC(c4ncc(Cl)n4C)CC3)C2)C1` (single isomer, unassigned) [1-13 Isomer 2, methyl 2-[4-(5-chloro-1-methyl-1H-imidazol-2-yl)piperidin-1-yl]-6-azaspiro[3.4]octane-6-carboxylate], in assay [1], the EC50 was 1.58 µM and the Emax came out at 61%. In assay [2], the EC50 is 398 nM and the Emax came out at 86%.
On the same counts, the results for `CCOC(=O)N1CCC2(CC(N3CCC(c4cc(C)c[nH]c4=O)CC3)C2)C1` (single isomer, unassigned) [3-15 Isomer 2, ethyl 2-[4-(5-methyl-2-oxo-1,2-dihydropyridin-3-yl)piperidin-1-yl]-6-azaspiro[3.4]octane-6-carboxylate] are 0.251 µM, 60%, 39.8 nM and 36%.
Regarding `COC(=O)N1CCC2(CC(N3CCC(C4CCCNC4=O)CC3)C2)C1` (single isomer, unassigned) [4-2 Isomer 4, methyl 2-(2-oxo-3,4′-bipiperidin-1′-yl)-6-azaspiro[3.4]octane-6-carboxylate], in assay [1], the EC50 is 0.794 µM and the Emax came out at 94%. In addition, in assay [2], the EC50 was 79.4 nM and the Emax turned out to be 42%.
On the same counts, the results for `CCOC(=O)N1CCC2(CC(N3CCC(C4CCCCN4C(=O)CC)CC3)C2)C1` (single isomer, unassigned) [4-19 Isomer 2, ethyl 2-(1-propanoyl-2,4′-bipiperidin-1′-yl)-6-azaspiro[3.4]octane-6-carboxylate] are > 20 µM, 7%, 251 nM and 38%.
On the same counts, the results for `CCOC(=O)N1CCC2(CC(N3CCC(n4nnnc4C)CC3)C2)C1` (single isomer, unassigned) [1-63 Isomer 2, ethyl 2-[4-(5-methyl-1H-tetrazol-1-yl)piperidin-1-yl]-6-azaspiro[3.4]octane-6-carboxylate] are > 20 µM, 82%, 1000 nM and 24%.
Turning to `COC(=O)N1CCC2(CC(N3CCC([C@@H]4CCCN4C(=O)N4CC(F)(F)C4)CC3)C2)C1` (single isomer, unassigned) [2-41 Isomer 2], in assay [1], the EC50 was 2.51 µM and the Emax is 36%. Further, in assay [2], the EC50 is 100 nM and the maximal effect (Emax) turned out to be 91%.
The corresponding values for `CCOC(=O)N1CCC2(CC(N3CCC([C@@H]4CCCN4C(=O)OCCF)CC3)C2)C1` (single isomer, unassigned) [2-47 Isomer 2] are 6.31 µM, 45%, 1000 nM and 63%.
The corresponding values for `CCOC(=O)N1CCC2(CC(N3CCC(N4CCCC4c4nnn[nH]4)CC3)C2)C1` (single isomer, unassigned) [2-128 Isomer 2, ethyl 2-{4-[2-(1H-tetrazol-5-yl)pyrrolidin-1-yl]piperidin-1-yl}-6-azaspiro[3.4]octane-6-carboxylate] are 10 µM, 89%, 1580 nM and 104%.
The corresponding values for `CCOC(=O)N1CCC2(CC(N3CCC(N4CCCC4c4ccn[nH]4)CC3)C2)C1` (single isomer, unassigned) [2-126 Isomer 2, ethyl 2-{4-[2-(1H-pyrazol-5-yl)pyrrolidin-1-yl]piperidin-1-yl}-6-azaspiro[3.4]octane-6-carboxylate] are > 20 µM, 15%, 79.4 nM and 60%.
For `CCOC(=O)N1CCC2(CC(N3CCC(c4c(C)ccnc4OC)CC3)C2)C1` (single isomer, unassigned) [3-11 Isomer 2, ethyl 2-[4-(2-methoxy-4-methylpyridin-3-yl)piperidin-1-yl]-6-azaspiro[3.4]octane-6-carboxylate], in assay [1], the EC50 was 0.0398 µM and the Emax came to 36%. Further, in assay [2], the EC50 was 25.1 nM and the Emax was 58%.
On the same counts, the results for `COC(=O)N1CCC2(CC(N3CCC(c4nn(C)cc4C)CC3)C2)C1` (single isomer, unassigned) [1-55 Isomer 2, methyl 2-[4-(1,4-dimethyl-1H-pyrazol-3-yl)piperidin-1-yl]-6-azaspiro[3.4]octane-6-carboxylate] are 5.01 µM, 40%, 501 nM and 64%.
As to `CCOC(=O)N1CCC2(CC(N3CCC(N4CC(F)(F)C[C@H]4C(=O)NC)CC3)C2)C1` (single isomer, unassigned) [2-93 Isomer 2], the EC50 was > 20 µM in assay [1] and > 20000 nM in assay [2]. Further, the figures for the Emax in assay [1] and in assay [2] were 7% and 3%, respectively.
On the same counts, the results for `CCOC(=O)N1CCC2(CC(N3CCC(c4ccn(C)n4)CC3)C2)C1` (single isomer, unassigned) [1-22 Isomer 2, ethyl 2-[4-(1-methyl-1H-pyrazol-3-yl)piperidin-1-yl]-6-azaspiro[3.4]octane-6-carboxylate] are 0.2 µM, > 20000 nM, 47% and 20%.
The corresponding values for `CCOC(=O)N1CCC2(CC(N3CCC([C@@H]4CCCN4CC)CC3)C2)C1` (single isomer, unassigned) [2-61 Isomer 2] are > 20 µM, 501 nM, 10% and 40%.
On the same counts, the results for `CCOC(=O)N1CCC2(CC(N3CCC(N4CCCC4c4nnn(C)n4)CC3)C2)C1` (single isomer, unassigned) [2-129 Isomer 2, ethyl 2-{4-[2-(2-methyl-2H-tetrazol-5-yl)pyrrolidin-1-yl]piperidin-1-yl}-6-azaspiro[3.4]octane-6-carboxylate] are > 20 µM, 100 nM, 12% and 55%.
With `CCOC(=O)N1CCC2(CC(N3CCC(N4C[C@H](F)C[C@@H]4C(=O)OC)CC3)C2)C1` (single isomer, unassigned) [2-134 Isomer 2], the results for the EC50 in assay [1] and in assay [2] were > 20 µM and 63.1 nM, respectively. Further, the values for the Emax in assay [1] and in assay [2] were 18% and 95%, respectively.
For `[2H]C([2H])([2H])COC(=O)N1CCC2(CC(N3CCC(c4ccnn4C)CC3)C2)C1` (single isomer, unassigned) [1-72 Isomer 2, (2,2,2-^2H3)ethyl 2-[4-(1-methyl-1H-pyrazol-5-yl)piperidin-1-yl]-6-azaspiro[3.4]octane-6-carboxylate], the EC50 was > 20 µM in assay [1] and 158 nM in assay [2]. Moreover, the results for the Emax in assay [1] and in assay [2] were 17% and 69%, respectively.
Regarding `CCOC(=O)N1CCC2(CC(N3CCC(N4C(=O)CCC4=O)CC3)C2)C1` (single isomer, unassigned) [2-112 Isomer 2, ethyl 2-[4-(2,5-dioxopyrrolidin-1-yl)piperidin-1-yl]-6-azaspiro[3.4]octane-6-carboxylate], the EC50 in assay [1] was > 20 µM; in assay [2], 251 nM. Besides, the results for the Emax in assay [1] and in assay [2] were 7% and 63%, respectively.
As to `CCOC(=O)N1CCC2(CC(N3CCC(c4nnc(CC)[nH]4)CC3)C2)C1` (single isomer, unassigned) [1-27 Isomer 2, ethyl 2-[4-(5-ethyl-1H-1,2,4-triazol-3-yl)piperidin-1-yl]-6-azaspiro[3.4]octane-6-carboxylate], in assay [1], the EC50 is 1 µM and the Emax amounted to 27%. In assay [2], the EC50 is 398 nM and the Emax was 41%.
The corresponding values for `CCOC(=O)N1CCC2(CC(N3CCC(c4nnnn4C)CC3)C2)C1` (single isomer, unassigned) [1-64 Isomer 2, ethyl 2-[4-(1-methyl-1H-tetrazol-5-yl)piperidin-1-yl]-6-azaspiro[3.4]octane-6-carboxylate] are 5.01 µM, 40%, 316 nM and 78%.
The corresponding values for `CCOC(=O)N1CCC2(CC(N3CCC(c4c(CC)cnn4C)CC3)C2)C1` (single isomer, unassigned) [1-60 Isomer 2, ethyl 2-[4-(4-ethyl-1-methyl-1H-pyrazol-5-yl)piperidin-1-yl]-6-azaspiro[3.4]octane-6-carboxylate] are 0.316 µM, 82%, 39.8 nM and 88%.
